Source: ChEMBL document CHEMBL3421592, “Synthesis and QSAR study of novel anti-inflammatory active mesalazine-metronidazole conjugates” (Bioorg Med Chem Lett, 2015)

Columns and labels:
Rattus norvegicus [1] = test: Antiinflammatory activity in Wistar rat assessed as inhibition of carrageenan-induced paw edema at 10 mg/kg indomethacin mol equivalent, ip administered 1 hr prior to carrageenan challenge measured at 1 hr relative to control; format: functional; conditions: route intraperitoneal
Rattus norvegicus [2] = test: Antiinflammatory activity in Wistar rat assessed as inhibition of carrageenan-induced paw edema at 10 mg/kg indomethacin mol equivalent, ip administered 1 hr prior to carrageenan challenge measured at 2 hrs relative to control; format: functional; conditions: route intraperitoneal
Rattus norvegicus [3] = test: Antiinflammatory activity in Wistar rat assessed as inhibition of carrageenan-induced paw edema at 10 mg/kg indomethacin mol equivalent, ip administered 1 hr prior to carrageenan challenge measured at 3 hrs relative to control; format: functional; conditions: route intraperitoneal
Rattus norvegicus [4] = test: Antiinflammatory activity in Wistar rat assessed as inhibition of carrageenan-induced paw edema at 10 mg/kg indomethacin mol equivalent, ip administered 1 hr prior to carrageenan challenge measured at 4 hrs relative to control; format: functional; conditions: route intraperitoneal
Rattus norvegicus [5] = test: Antiinflammatory activity in Wistar rat assessed as inhibition of carrageenan-induced paw edema at 10 mg/kg indomethacin mol equivalent, ip administered 1 hr prior to carrageenan challenge measured at 24 hrs relative to control; format: functional; conditions: route intraperitoneal
Mus musculus [6] = test: Toxicity in albino mouse assessed as appearance of toxic symptoms at 50 to 100 mg/kg indomethacin mol equivalent, ip measured after 24 hrs; format: organism-based; parameters: dose 50-100 mg/kg, route intraperitoneal; conditions: in vivo
Mus musculus [7] = test: Toxicity in albino mouse assessed as mortality at 50 to 100 mg/kg indomethacin mol equivalent, ip measured after 24 hrs; format: organism-based; parameters: dose 50-100 mg/kg, route intraperitoneal; conditions: in vivo
Rattus norvegicus [8] = test: Ulcerogenic activity in Wistar rat assessed as ulcer index at 10 mg/kg indomethacin mol equivalent, po administered 3 days relative to control; format: toxicity, organism-based; parameters: dose 10 mg/kg, route oral; conditions: in vivo, 72 h
Rattus norvegicus [9] = test: Antiinflammatory activity in Wistar rat assessed as inhibition of carrageenan-induced paw edema at 10 mg/kg, ip administered 1 hr prior to carrageenan challenge measured at 1 hr relative to control; format: functional; conditions: route intraperitoneal
Rattus norvegicus [10] = test: Antiinflammatory activity in Wistar rat assessed as inhibition of carrageenan-induced paw edema at 10 mg/kg, ip administered 1 hr prior to carrageenan challenge measured at 2 hrs relative to control; format: functional; conditions: route intraperitoneal
Rattus norvegicus [11] = test: Antiinflammatory activity in Wistar rat assessed as inhibition of carrageenan-induced paw edema at 10 mg/kg, ip administered 1 hr prior to carrageenan challenge measured at 3 hrs relative to control; format: functional; conditions: route intraperitoneal
Rattus norvegicus [12] = test: Ulcerogenic activity in Wistar rat assessed as ulcer index at 10 mg/kg, po administered 3 days relative to control; format: toxicity, organism-based; parameters: dose 10 mg/kg, route oral; conditions: in vivo, 72 h

SMILES	inhibition in vivo (Rattus norvegicus [1]) [%]	inhibition in vivo (Rattus norvegicus [2]) [%]	inhibition in vivo (Rattus norvegicus [3]) [%]	inhibition in vivo (Rattus norvegicus [4]) [%]	inhibition in vivo (Rattus norvegicus [5]) [%]	Activity (Mus musculus [6])	Activity (Mus musculus [7])	UI (Rattus norvegicus [8])	inhibition in vivo at 10 mg/kg (Rattus norvegicus [9]) [%]	inhibition in vivo at 10 mg/kg (Rattus norvegicus [10]) [%]	inhibition in vivo at 10 mg/kg (Rattus norvegicus [11]) [%]	UI (Rattus norvegicus [12])
Cc1ncc([N+](=O)[O-])n1CCOC(=O)c1cc(NC(=O)[C@H](CCCCN)NC(=O)OCc2ccccc2)ccc1O	44.3	37.8	36.9	33.5	23.4	–	–	–	–	–	–	–
Nc1ccc(O)c(C(=O)O)c1 [MESALAMINE]	63.8	53.2	57.5	52.3	38.6	–	–	–	–	–	–	–
CC(=O)Nc1ccc(O)c(C(=O)OCCn2c([N+](=O)[O-])cnc2C)c1	63.4	24.5	16.6	15.5	0	–	–	–	–	–	–	–
Cc1ncc([N+](=O)[O-])n1CCO [METRONIDAZOLE]	66.3	66.3	60.8	58.9	0	Non-toxic	Non-toxic	0	–	–	–	–
Cc1ncc([N+](=O)[O-])n1CCOC(=O)c1cc(NC(=O)[C@H](C)NC(=O)OCc2ccccc2)ccc1O	58.5	37.5	37.1	36.1	11.6	–	–	–	–	–	–	–
COc1ccc2c(c1)c(CC(=O)O)c(C)n2C(=O)c1ccc(Cl)cc1 [INDOMETHACIN]	–	–	–	–	–	–	–	–	48.3	55.3	61.3	6
Cc1ncc([N+](=O)[O-])n1CCOC(=O)c1cc(NC(=O)CNC(=O)OCc2ccccc2)ccc1O	56.1	56.5	57	52.8	17.1	–	–	–	–	–	–	–
CC(=O)Nc1ccc(O)c(C(=O)O)c1	43.3	7.9	1.3	0	0	–	–	–	–	–	–	–
Cc1ncc([N+](=O)[O-])n1CCOC(=O)c1cc(NC(=O)[C@@H](NC(=O)OCc2ccccc2)C(C)C)ccc1O	74.4	64.5	61.5	58.2	51.7	Non-toxic	Non-toxic	0	–	–	–	–
Cc1ncc([N+](=O)[O-])n1CCOC(=O)c1cc(NC(=O)C(C)NC(=O)OCc2ccccc2)ccc1O (racemic)	57.9	47	44.8	41.1	0	–	–	–	–	–	–	–
Cc1ncc([N+](=O)[O-])n1CCOC(=O)c1cc(NC(=O)[C@H](Cc2ccccc2)NC(=O)OCc2ccccc2)ccc1O	54.8	30.1	29	27.5	33.2	–	–	–	–	–	–	–
